Results as given in patent publication US20240246933A1, “CRYSTALLINE FORM OF TRICYCLIC DERIVATIVE COMPOUND, METHOD FOR PREPARING SAME, AND PHARMACEUTICAL COMPOSITION COMPRISING SAME” (ONCONIC THERAPEUTICS INC., priority 2021, published 2024).
Where a name gives a salt, the structure may show the parent alone. Read-outs that look alike come from different tables or passages of the source.

Tests used:
[1] = Measurement of solubility in water (shake-flask, UPLC); assay type: physicochemical; settings: for Water solubility: shake-flask shaken for 24 hours, UPLC
Method: Compounds are dissolved in DMSO and measured by UPLC, and then a calibration curve is drawn. The compounds saturated by the Shake-flask method are filtered and then measured by UPLC, and it is substituted into a calibration curve to calculate the concentration.

[2] = Measurement of solubility in various solvents; assay type: physicochemical; settings: 0.1 g of sample, 15 to 25° C., within 30 minutes
Method: Specifically, 0.1 g of sample was accurately weighed, put into each solvent, and shaken and mixed vigorously for 30 seconds every 5 minutes at 15 to 25° C., and the amount dissolved within 30 minutes was measured.

tankyrase-2 enzyme = biological target: T1, tankyrase-2 enzyme (Homo sapiens, UniProt Q9H2K2); assay: Inhibition test of tankyrase-2 enzyme (BPS Bioscience kit); assay type: biochemical; settings: tankyrase-2 enzyme 15 ng/well, 25° C. for 1 hour; read-out: IC50 (tankyrase-2 enzyme inhibitory activity)
T1 construct: purchased BPS Bioscience 80578
T1 sequence (Q9H2K2 849-1166): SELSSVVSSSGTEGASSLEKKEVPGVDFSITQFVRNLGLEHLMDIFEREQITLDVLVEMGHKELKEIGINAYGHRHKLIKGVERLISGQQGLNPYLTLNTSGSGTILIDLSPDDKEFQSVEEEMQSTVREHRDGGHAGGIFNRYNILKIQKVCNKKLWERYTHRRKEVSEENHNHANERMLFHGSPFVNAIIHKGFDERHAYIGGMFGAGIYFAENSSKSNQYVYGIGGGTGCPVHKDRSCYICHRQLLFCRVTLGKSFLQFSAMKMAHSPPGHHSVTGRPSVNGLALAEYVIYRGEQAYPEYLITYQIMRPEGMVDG
Method: (§1) Histones were coated on a 96-well plate provided from BPS Bioscience's kit and left at 4 °C for 16 hours. […] After 1 hour, each well was washed 4 times with PBST, and streptavidin-linked peroxidase (Strep-HRP, 1:50 dilution) was added thereto to measure the amount of ribosylation by PARP enzyme, and reacted at 25° C. for 30 minutes. The plate was washed 4 times with PBST, and then HRP chemiluminescent substrate was finally added thereto and reacted. The amount of histone ribosylation formed by each enzyme was quantified using a Synergy™ H4 Hybrid Multi-Mode Microplate Reader (BioTek Instruments, Inc., US (A)).

[3] = Stability of the addition salt of Compound 1 (temperature, humidity, light; purity by HPLC); assay type: physicochemical; settings: for Stability in the temperature and humidity (in words): temperature and humidity conditions of Table 5
Method: The stability of crystals of the addition salt of Compound 1 prepared in the Examples and Comparative Examples above was confirmed, and the results are shown in Table 5 below.
Experiments according to temperature, humidity and light conditions were carried out by a method of confirming purity by HPLC after storage in a stability chamber under each condition.
Each sample was spread thinly in a Petri dish, and then the stability was evaluated after irradiation with UV light having a light intensity of 35 W to a total irradiation amount of 200 watts under conditions of 25° C. and 60% humidity using a photostability test chamber (CARON 6542-2).
Each sample was spread thinly in a Petri dish, and then the stability was evaluated after irradiation with visible light having a light intensity of 35 k Lux to a total irradiation amount of 1200 k lux under conditions of 25° C. and 60% humidity using a photostability test chamber (CARON 6542-2).

PARP-1 enzyme = PARP-1 enzyme (Homo sapiens, UniProt P09874); assay: Inhibition test of poly (ADP-ribose) polymerase [PARP-1] enzyme (BPS Bioscience kit)
PARP-1 enzyme, sequence (P09874 whole entry): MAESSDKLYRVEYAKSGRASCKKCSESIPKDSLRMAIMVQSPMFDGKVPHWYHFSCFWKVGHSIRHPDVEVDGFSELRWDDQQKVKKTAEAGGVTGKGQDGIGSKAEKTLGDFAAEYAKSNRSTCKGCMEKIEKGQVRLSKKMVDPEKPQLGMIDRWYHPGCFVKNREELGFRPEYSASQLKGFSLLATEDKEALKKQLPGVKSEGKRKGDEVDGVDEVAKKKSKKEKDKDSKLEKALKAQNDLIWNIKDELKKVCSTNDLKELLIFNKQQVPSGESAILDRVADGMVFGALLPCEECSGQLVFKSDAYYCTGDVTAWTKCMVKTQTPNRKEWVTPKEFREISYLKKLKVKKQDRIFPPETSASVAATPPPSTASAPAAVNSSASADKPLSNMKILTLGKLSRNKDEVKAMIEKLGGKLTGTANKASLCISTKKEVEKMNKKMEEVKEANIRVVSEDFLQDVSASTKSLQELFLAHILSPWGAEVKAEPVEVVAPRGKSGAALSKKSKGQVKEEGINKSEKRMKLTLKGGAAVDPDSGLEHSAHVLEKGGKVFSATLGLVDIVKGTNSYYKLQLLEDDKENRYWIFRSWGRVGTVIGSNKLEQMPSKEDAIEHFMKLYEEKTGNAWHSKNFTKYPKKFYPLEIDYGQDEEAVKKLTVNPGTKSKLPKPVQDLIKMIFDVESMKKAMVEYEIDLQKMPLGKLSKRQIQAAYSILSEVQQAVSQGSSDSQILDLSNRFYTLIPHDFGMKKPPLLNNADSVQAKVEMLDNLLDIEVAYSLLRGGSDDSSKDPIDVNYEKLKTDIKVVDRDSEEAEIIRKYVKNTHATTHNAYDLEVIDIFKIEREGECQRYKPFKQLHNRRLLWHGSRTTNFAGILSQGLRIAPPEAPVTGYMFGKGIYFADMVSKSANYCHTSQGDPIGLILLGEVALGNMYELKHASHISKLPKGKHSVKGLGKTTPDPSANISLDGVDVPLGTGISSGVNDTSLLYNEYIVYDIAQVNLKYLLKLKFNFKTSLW
Method: Histones were coated on a 96-well plate provided from BPS Bioscience's kit and left at 4° C. for 16 hours. […] After 1 hour, each well was washed 4 times with PBST, and streptavidin-linked peroxidase (Strep-HRP, 1:50 dilution) was added thereto to measure the amount of ribosylation by PARP enzyme, and reacted at 25° C. for 30 minutes. The plate was washed 4 times with PBST, and then HRP chemiluminescent substrate was finally added thereto and reacted. The amount of histone ribosylation formed by each enzyme was quantified using a Synergy™ H4 Hybrid Multi-Mode Microplate Reader (BioTek Instruments, Inc., US (A)).

[4] = Purity and stability under accelerated and long-term storage conditions (HPLC); assay type: physicochemical; settings: for Long-term storage conditions (related substances) (area %) / Purity under long-term storage conditions (area %): 25±2° C., humidity 60±5%; for Accelerated storage conditions (related substances) (area %) / Purity under accelerated storage conditions (area %): 40±2° C., humidity 75±5%
Method: The purity and stability of the crystalline anhydride of the citrate prepared in Example 2 and the crystalline monohydrate of the citrate prepared in Example 3 according to the present invention were evaluated, and the results are shown in Tables 8 and 9 below.
In the tables below, stability tests were conducted under accelerated storage conditions of a temperature of 40±2° C. and humidity of 75±5%, and purity and stability tests were conducted under long-term storage conditions of a temperature of 25±2° C. and humidity of 60±5%. Experimental results were measured under the same conditions as in Experimental Example 1 using HPLC (product name: agilent 1290, manufacturer: Agilent).

tankyrase-1 enzyme = tankyrase-1 enzyme (Homo sapiens, UniProt O95271); assay: biochemical
tankyrase-1 enzyme, sequence (O95271 1001-1327): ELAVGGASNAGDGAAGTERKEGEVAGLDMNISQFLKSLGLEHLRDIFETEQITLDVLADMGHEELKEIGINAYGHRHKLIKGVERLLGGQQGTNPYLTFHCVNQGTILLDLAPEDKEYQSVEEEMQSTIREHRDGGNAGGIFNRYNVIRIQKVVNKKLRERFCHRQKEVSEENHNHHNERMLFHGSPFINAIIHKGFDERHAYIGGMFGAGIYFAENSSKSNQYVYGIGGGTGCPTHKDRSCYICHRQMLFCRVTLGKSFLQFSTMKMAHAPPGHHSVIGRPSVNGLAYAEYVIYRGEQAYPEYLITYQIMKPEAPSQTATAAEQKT
Method: as §1

[5] = Temperature of 40° C., humidity of 70%, 3 days
[6] = UV 200 watt, 25° C. and 60% humidity
[7] = Visible 1200k lux, 25° C. and 60% humidity
[8] = 3 months, listed as Crystalline monohydrate of citrate in Example 3
[9] = 6 months, listed as Crystalline monohydrate of citrate in Example 3
[10] = initial, listed as Crystalline monohydrate of citrate in Example 3
[11] = 3 months, listed as Crystalline anhydride of citrate in Example 2
[12] = 6 months, listed as Crystalline anhydride of citrate in Example 2
[13] = initial, listed as Crystalline anhydride of citrate in Example 2

## N#Cc1ccc(N2CCN(Cc3ccc4c5c(c(=O)[nH]c4c3)CCCN5)CC2)nc1 [Compound 1, 6-{4-[(5-oxo-1,2,3,4,5,6-hexahydrobenzo[h][1,6]naphthyridin-8-yl)methyl]piperazin-1-yl}nicotinonitrile]
[1]; listed as Crystal (free form) of the compound of Formula 1 in Comparative Example 1-1
  Water solubility: 1 µM
[2]; Aqueous HCl solution (pH 1.1), listed as Free form
  Solubility (0.1 g/mL): 350 mL
[2]; DMF, listed as Free form
  Solubility (0.1 g/mL): 8 mL
[2]; EtOH, listed as Free form
  Solubility (0.1 g/mL): ≥ 1000 mL
[2]; MeOH, listed as Free form
  Solubility (0.1 g/mL): 300 mL
[2]; Water, listed as Free form
  Solubility (0.1 g/mL): ≥ 1200 mL

## Cl.Cl.N#Cc1ccc(N2CCN(Cc3ccc4c5c(c(=O)[nH]c4c3)CCCN5)CC2)nc1 [Comparative Example 2, Dichloride Salt of 6-{4-[(5-oxo-1,2,3,4,5,6-hexahydrobenzo[h][1,6]naphthyridin-8-yl)methyl]piperazine-1-yl}nicotinonitrile]
tankyrase-2 enzyme
  IC50: 1.12 nM
[1]
  Water solubility: 392 µM
[3]; Humidity of 75%, 3 days
  Purity (%): 97.76%
[3]; Initial value
  Purity (%): 97.89%
[3]; [5]
  Purity (%): 97.83%
[3]; Temperature of 50° C., 3 days
  Purity (%): 97.79%
[3]; UV 200 watt - dark
  Purity (%): 97.89%
[3]; UV200 watt and Visible1200 k lux
  Photostability (in words): remarkably poor photostability
[3]; [6]
  Purity (%): 86.89%
[3]; Visible 1200k lux - dark
  Purity (%): 97.89%
[3]; [7]
  Purity (%): 93.40%
[3]
  Stability in the temperature and humidity (in words): stable
PARP-1 enzyme; read-out: IC50 (PARP-1 enzyme inhibitory activity), PARP-1 enzyme 50 ng/well, 25° C. for 1 hour
  IC50: 3.03 nM

## N#Cc1ccc(N2CCN(Cc3ccc4c5c(c(=O)[nH]c4c3)CCCN5)CC2)nc1 [Example 4, Citrate Dihydrate of 6-{4-[(5-oxo-1,2,3,4,5,6-hexahydrobenzo[h][1,6]naphthyridin-8-yl)methyl]piperazine-1-yl}nicotinonitrile]
[2]; Aqueous HCl solution (pH 1.1), listed as Crystalline dihydrate of citrate in Example 4
  Solubility (0.1 g/mL): 55 mL
[2]; DMF, listed as Crystalline dihydrate of citrate in Example 4
  Solubility (0.1 g/mL): 2.5 mL
[2]; EtOH, listed as Crystalline dihydrate of citrate in Example 4
  Solubility (0.1 g/mL): 450 mL
[2]; MeOH, listed as Crystalline dihydrate of citrate in Example 4
  Solubility (0.1 g/mL): 9 mL
[2]; Water, listed as Crystalline dihydrate of citrate in Example 4
  Solubility (0.1 g/mL): ≥ 400 mL

## N#Cc1ccc(N2CCN(Cc3ccc4c5c(c(=O)[nH]c4c3)CCCN5)CC2)nc1 [Example 3, Citrate Monohydrate of 6-{4-[(5-oxo-1,2,3,4,5,6-hexahydrobenzo[h][1,6]naphthyridin-8-yl)methyl]piperazine-1-yl}nicotinonitrile]
[2]; Aqueous HCl solution (pH 1.1), listed as Crystalline monohydrate of citrate in Example 3
  Solubility (0.1 g/mL): 50 mL
[2]; DMF, listed as Crystalline monohydrate of citrate in Example 3
  Solubility (0.1 g/mL): 2.9 mL
[2]; EtOH, listed as Crystalline monohydrate of citrate in Example 3
  Solubility (0.1 g/mL): 350 mL
[2]; MeOH, listed as Crystalline monohydrate of citrate in Example 3
  Solubility (0.1 g/mL): 9 mL
[2]; Water, listed as Crystalline monohydrate of citrate in Example 3
  Solubility (0.1 g/mL): 400 mL
[4]; [8]
  Long-term storage conditions (related substances) (area %): 0.29%
  Accelerated storage conditions (related substances) (area %): 0.34%
[4]; [9]
  Long-term storage conditions (related substances) (area %): 0.32%
  Accelerated storage conditions (related substances) (area %): 0.32%
[4]; [10]
  Long-term storage conditions (related substances) (area %): 0.38%
  Accelerated storage conditions (related substances) (area %): 0.38%

## N#Cc1ccc(N2CCN(Cc3ccc4c5c(c(=O)[nH]c4c3)CCCN5)CC2)nc1 [Example 2, Citrate Anhydride of 6-{4-[(5-oxo-1,2,3,4,5,6-hexahydrobenzo[h][1,6]naphthyridin-8-yl)methyl]piperazine-1-yl}nicotinonitrile]
tankyrase-2 enzyme
  IC50: 1.06 nM
[1]; compared to other salts
  Solubility in water (in words): remarkably excellent solubility in water
[1]; listed as Crystalline anhydride of citrate of Compound 1
  Water solubility: 1067 µM
[3]; Humidity of 75%, 3 days
  Purity (%): 97.81%
[3]; Initial value
  Purity (%): 97.97%
[3]; [5]
  Purity (%): 97.79%
[3]; Temperature of 50° C., 3 days
  Purity (%): 97.86%
[3]; UV 200 watt - dark
  Purity (%): 98.38%
[3]; [6]
  Purity (%): 96.94%
[3]; Visible 1200k lux - dark
  Purity (%): 98.39%
[3]; [7]
  Purity (%): 96.73%
[3]
  Stability in the temperature and humidity (in words): stable
[2]; Aqueous HCl solution (pH 1.1), listed as Crystalline anhydride of citrate in Example 2
  Solubility (0.1 g/mL): ≤ 100 mL
[2]; DMF, listed as Crystalline anhydride of citrate in Example 2
  Solubility (0.1 g/mL): 8 mL
[2]; EtOH, listed as Crystalline anhydride of citrate in Example 2
  Solubility (0.1 g/mL): ≥ 1000 mL
[2]; MeOH, listed as Crystalline anhydride of citrate in Example 2
  Solubility (0.1 g/mL): ≥ 100 mL
[2]; Water, listed as Crystalline anhydride of citrate in Example 2
  Solubility (0.1 g/mL): ≤ 1000 mL
PARP-1 enzyme
  IC50: 2.62 nM
[4]; 1 month
  Purity under long-term storage conditions (area %): 99.64%
  Purity under accelerated storage conditions (area %): 99.64%
[4]; 3 months
  Purity under long-term storage conditions (area %): 99.66%
  Purity under accelerated storage conditions (area %): 99.65%
[4]; [11]
  Long-term storage conditions (related substances) (area %): 0.28%
  Accelerated storage conditions (related substances) (area %): 0.24%
[4]; 6 months
  Purity under long-term storage conditions (area %): 99.58%
  Purity under accelerated storage conditions (area %): 99.54%
[4]; [12]
  Long-term storage conditions (related substances) (area %): 0.29%
  Accelerated storage conditions (related substances) (area %): 0.28%
[4]; 9 months
  Long-term storage conditions (related substances) (area %): 0.31%
  Purity under long-term storage conditions (area %): 99.67%
[4]; 12 months
  Long-term storage conditions (related substances) (area %): 0.29%
  Purity under long-term storage conditions (area %): 99.72%
[4]; 18 months
  Long-term storage conditions (related substances) (area %): 0.33%
  Purity under long-term storage conditions (area %): 99.73%
[4]; 24 months
  Long-term storage conditions (related substances) (area %): 0.34%
  Purity under long-term storage conditions (area %): 99.74%
[4]; 30 months
  Long-term storage conditions (related substances) (area %): 0.34%
[4]; 36 months
  Long-term storage conditions (related substances) (area %): 0.30%
  Purity under long-term storage conditions (area %): 99.73%
[4]; initial
  Purity under long-term storage conditions (area %): 99.66%
  Purity under accelerated storage conditions (area %): 99.66%
[4]; [13]
  Long-term storage conditions (related substances) (area %): 0.26%
  Accelerated storage conditions (related substances) (area %): 0.26%
tankyrase-1 enzyme
  IC50: 4.31 nM
